Like-named read-outs stand apart in the source and are kept apart here.
How the values were obtained:
Test in all cases: 3H-TdR (3H-thymidine) incorporation assay at 72 hr
H-460 = format: cell-based, Human
CEM/dCK- = format: cell-based; conditions: for IC50: Homo sapiens, CCRF-CEM; for Factor* (Resistance Factor = Ratio of dCK- on Wild-type CCRF-CEM): ratio of IC50 CEM/dCK- to CCRF-CEM, 24 h
Protocol: (§1) Table of IC50 Values (μM) for Controls
(§2) Exposition of 24 hr to drug, wash, incubated for another 48 hr (total of 72 hr assay)
(§3) (3H-Thymidine Incorporation Assay)

CCRF-CEM = format: cell-based; conditions: Homo sapiens, CCRF-CEM
Protocol: as §1, §2, §3

SF-268 = format: cell-based, Human; conditions: Homo sapiens
MCF-7 = format: cell-based, Human
[1] = read-out: IC50 CEM/dCK- 24 h, 24 h drug exposure, wash, another 48 hr, deoxycytidine kinase-deficient CCRF-CEM
[2] = read-out: IC50 CCRF-CEM 24 h, 24 h drug exposure, wash, another 48 hr, 3H-TdR incorporation at 72 hr
[3] = SF-268, read-out: IC50 SF-268 24 h, 24 h drug exposure, wash, another 48 hr, 3H-TdR incorporation at 72 hr
[4] = Homo sapiens, NCI-H460, read-out: IC50 H-460 24 h
[5] = SF-268, read-out: IC50 SF-268 24 h
[6] = Homo sapiens, MCF7, read-out: IC50 MCF-7 24 h
[7] = Homo sapiens, NCI-H460, read-out: IC50 H-460 24 h, 24 h drug exposure, wash, another 48 hr, 3H-TdR incorporation at 72 hr
[8] = Homo sapiens, MCF7, read-out: IC50 MCF-7 24 h, 24 h drug exposure, wash, another 48 hr, 3H-TdR incorporation at 72 hr

## Nc1ccn([C@@H]2CO[C@H](COC(=O)CCCCCNCc3ccccc3)O2)c(=O)n1.O=C(O)C(F)(F)F.O=C(O)C(F)(F)F (stereo in doubt) [Compound 83, 6-Benzylamino-hexanoic acid 4-(4-amino-2-oxo-2H-pyrimidin-1-yl)-[1,3]dioxolan-2-ylmethyl ester bis trifluoroacetate salt]
H-460; read-out: IC50 H-460 24 h, 24 h drug exposure, wash, another 48 hr, 3H-TdR incorporation at 72 hr, bis trifluoroacetate salt
  IC50: 0.054 µM
CEM/dCK-; [1]
  IC50: > 100 µM
CEM/dCK-
  Factor* (Resistance Factor = Ratio of dCK- on Wild-type CCRF-CEM): 4,545
CCRF-CEM; [2]
  IC50: 0.022 µM
SF-268; [3]
  IC50: 0.26 µM
MCF-7; read-out: IC50 MCF-7 24 h, 24 h drug exposure, wash, another 48 hr, 3H-TdR incorporation at 72 hr, bis trifluoroacetate salt
  IC50: 0.083 µM

## N=C(OC[C@H]1OC[C@@H](n2ccc(N)nc2=O)O1)C(Cl)(Cl)Cl [Compound 79]
H-460; [4]
  IC50: 0.12 µM
CEM/dCK-
  Factor* (Resistance Factor = Ratio of dCK- on Wild-type CCRF-CEM): 4,500
CCRF-CEM; read-out: IC50 CCRF-CEM 24 h
  IC50: 0.014 µM
SF-268; [5]
  IC50: 0.16 µM
MCF-7; [6]
  IC50: 0.17 µM

## CN(Cc1ccccc1)C(=O)OC[C@H]1OC[C@@H](n2ccc(N)nc2=O)O1 [Compound 140, BENZYL-METHYL-CARBAMIC ACID 4-(4-AMINO-2-OXO- 2H-PYRIMIDIN-1-YL)- [1,3]DIOXOLAN-2- YLMETHYL ESTER]
H-460; [7]
  IC50: 10 µM
CEM/dCK-; [1]
  IC50: > 100 µM
CEM/dCK-
  Factor* (Resistance Factor = Ratio of dCK- on Wild-type CCRF-CEM): >9
CCRF-CEM; [2]
  IC50: 11 µM
SF-268; [3]
  IC50: 3 µM
MCF-7; [8]
  IC50: 20 µM

## CCCCCCOC(=O)Nc1ccn([C@@H]2CO[C@H](COC(=O)OCCCCCC)O2)c(=O)n1 [Compound 150, CARBONIC ACID HEXYL ESTER 4-(4- HEXYLOXYCARBONYLAMINO- 2-OXO-2H-PYRIMIDIN-1- YL)-[1,3]DIOXOLAN-2- YLMETHYL ESTER]
H-460; [7]
  IC50: 0.96 µM
CEM/dCK-; [1]
  IC50: 90 µM
CEM/dCK-
  Factor* (Resistance Factor = Ratio of dCK- on Wild-type CCRF-CEM): 692
CCRF-CEM; [2]
  IC50: 0.13 µM
SF-268; [3]
  IC50: 1.3 µM
MCF-7; [8]
  IC50: 1.6 µM

## CCCCC(OC)(OC)OC[C@H]1OC[C@@H](n2ccc(N)nc2=O)O1 [Compound 141, 4-AMINO-1-[2-(1,1- DIMETHOXY- PENTYLOXYMETHYL)- [1,3]DIOXOLAN-4-YL]-1H- PYRIMIDIN-2-ONE]
H-460; [7]
  IC50: 0.034 µM
CEM/dCK-; [1]
  IC50: 69 µM
CEM/dCK-
  Factor* (Resistance Factor = Ratio of dCK- on Wild-type CCRF-CEM): 3,632
CCRF-CEM; [2]
  IC50: 0.019 µM
SF-268; [3]
  IC50: 0.04 µM
MCF-7; [8]
  IC50: 0.066 µM

## CCOC(=O)Nc1ccn([C@@H]2CO[C@H](CO)O2)c(=O)n1 [Compound 45, [1-(2-HYDROXYMETHYL- [1,3]DIOXOLAN-4-YL)-2- OXO-1,2-DIHYDRO- PYRIMIDIN-4-YL]- CARBAMIC ACID ETHYL ESTER]
H-460; [7]
  IC50: 3.2 µM
CEM/dCK-; [1]
  IC50: > 100 µM
CEM/dCK-
  Factor* (Resistance Factor = Ratio of dCK- on Wild-type CCRF-CEM): 63
CCRF-CEM; [2]
  IC50: 1.6 µM
SF-268; [3]
  IC50: 9 µM
MCF-7; [8]
  IC50: 2.7 µM

## CC(CCCCN(Cc1ccccc1)C(=O)OC(C)(C)C)C(=O)Nc1ccn([C@@H]2CO[C@H](CO)O2)c(=O)n1 (stereo in doubt) [Compound 158, Benzyl-{5-[1-(2-hydroxymethyl-[1,3]dioxolan-4-yl)-2-oxo-1,2-dihydro-pyrimidin-4-ylcarbamoyl]-hexyl}-carbamic acid tert-butyl ester]
H-460; [7]
  IC50: 0.63 µM
CEM/dCK-; [1]
  IC50: 58 µM
CEM/dCK-
  Factor* (Resistance Factor = Ratio of dCK- on Wild-type CCRF-CEM): 617
CCRF-CEM; [2]
  IC50: 0.094 µM
SF-268; [3]
  IC50: 3.7 µM
MCF-7; [8]
  IC50: 0.04 µM

## CCCCCCOC(=O)OC[C@H]1OC[C@@H](n2ccc(N)nc2=O)O1 [Compound 126, CARBONIC ACID 4-(4- AMINO-2-OXO-2H- PYRIMIDIN-1-YL)- [1,3]DIOXOLAN-2- YLMETHYL ESTER HEXYL ESTER]
H-460; [7]
  IC50: 0.0041 µM
CEM/dCK-; [1]
  IC50: 13 µM
CEM/dCK-
  Factor* (Resistance Factor = Ratio of dCK- on Wild-type CCRF-CEM): 8,125
CCRF-CEM; [2]
  IC50: 0.0016 µM
SF-268; [3]
  IC50: 0.0085 µM
MCF-7; [8]
  IC50: 0.002 µM

## CC(=O)OCC1OC2OC(C)(OC[C@H]3OC[C@@H](n4ccc(NC(=O)OCc5ccccc5)nc4=O)O3)OC2C(OC(C)=O)C1OC(C)=O (stereo in doubt) [Compound 148, Acetic acid 6-acetoxy-5-acetoxymethyl-2-[4-(4-benzyloxycarbonylamino-2-oxo-2H-pyrimidin-1-yl)-[1,3]dioxolan-2-ylmethoxy]-2-methyl-tetrahydro-[1,3]dioxolo[4,5-b]pyran-7-yl ester]
H-460; [7]
  IC50: 36 µM
CEM/dCK-; [1]
  IC50: 24 µM
CEM/dCK-
  Factor* (Resistance Factor = Ratio of dCK- on Wild-type CCRF-CEM): 4
CCRF-CEM; [2]
  IC50: 6.3 µM
SF-268; [3]
  IC50: 9.9 µM
MCF-7; [8]
  IC50: 6.3 µM

## COc1ccc(OC(=O)OC[C@H]2OC[C@@H](n3ccc(N)nc3=O)O2)cc1 [Compound 118, CARBONIC ACID 4-(4- AMINO-2-OXO-2H- PYRIMIDIN-1-YL)- [1,3]DIOXOLAN-2- YLMETHYL ESTER 4- METHOXY-PHENYL ESTER]
H-460; [7]
  IC50: 0.022 µM
CEM/dCK-; [1]
  IC50: > 100 µM
CEM/dCK-
  Factor* (Resistance Factor = Ratio of dCK- on Wild-type CCRF-CEM): >3571
CCRF-CEM; [2]
  IC50: 0.028 µM
SF-268; [3]
  IC50: 0.16 µM
MCF-7; [8]
  IC50: 0.077 µM

## Nc1ccn([C@@H]2CO[C@H](CO[C@@H]3O[C@H](CO)[C@@H](O)[C@H]3O)O2)c(=O)n1.O=C(O)C(F)(F)F [Compound 85, 4-AMINO-1-[2-(3,4- DIHYDROXY-5- HYDROXYMETHYL- TETRAHYDROFURAN-2- YLOXYMETHYL)- [1,3]DIOXOLAN-4-YL]- 1HPYIMIDIN-2-ONE, TRIFLUOROACETIC ACID SALT]
H-460; [7]
  IC50: 0.69 µM
CEM/dCK-; [1]
  IC50: > 100 µM
CEM/dCK-
  Factor* (Resistance Factor = Ratio of dCK- on Wild-type CCRF-CEM): 38
CCRF-CEM; [2]
  IC50: 2.6 µM
SF-268; [3]
  IC50: 16 µM
MCF-7; [8]
  IC50: 6.8 µM

## O=C(Nc1ccn([C@@H]2CO[C@H](CO)O2)c(=O)n1)Oc1ccc(Cl)cc1.O=C(O)C(F)(F)F [Compound 104, [1-(2-HYDROXYMETHYL- [1,3]DIOXOLAN-4-YL)-2- OXO-1,2-DIHYDRO- […]-4-YL]- CARBAMIC ACID 4-CHLORO- PHENYL ESTER TRIFLUOROACETATE SALT]
H-460; [4]
  IC50: 0.27 µM
CEM/dCK-; read-out: IC50 CEM/dCK- 24 h
  IC50: > 100 µM
CEM/dCK-
  Factor* (Resistance Factor = Ratio of dCK- on Wild-type CCRF-CEM): >476
CCRF-CEM; read-out: IC50 CCRF-CEM 24 h
  IC50: 0.21 µM
SF-268; [5]
  IC50: 0.47 µM
MCF-7; [6]
  IC50: 0.47 µM

## CC(C)C(NC(=O)OCc1ccccc1)C(=O)OC[C@H]1OC[C@@H](n2ccc(/N=C/N(C)C)nc2=O)O1 (stereo partly drawn) [Compound 131, (2S,4S)-2- (BENZYLOXYCARBONYL-L- VALINOXYMETHYL)-4-(4′- N,N- DIMETHYLAMINOMETHYLENE- CYTOSIN-1′-YL)-1,3- DIOXOLANE]
H-460; [7]
  IC50: 0.11 µM
CEM/dCK-; [1]
  IC50: 83 µM
CEM/dCK-
  Factor* (Resistance Factor = Ratio of dCK- on Wild-type CCRF-CEM): 3,952
CCRF-CEM; [2]
  IC50: 0.021 µM
SF-268; [3]
  IC50: 0.012 µM
MCF-7; [8]
  IC50: 0.1 µM

## CCCCC(C)C(=O)OC[C@H]1OC[C@@H](n2ccc(/N=C/N(C)C)nc2=O)O1 (stereo partly drawn) [Compound 64, (2S,4S)-2-(2″-METHYL- HEXANOICOXYMETHYL)-4- (4′-NN- DIMETHYLAMINOMETHYLENE- CYTOSIN-1′-YL)-1,3- DIOXOLANE]
H-460; [7]
  IC50: 0.0017 µM
CEM/dCK-; [1]
  IC50: 3.6 µM
CEM/dCK-
  Factor* (Resistance Factor = Ratio of dCK- on Wild-type CCRF-CEM): 2,000
CCRF-CEM; [2]
  IC50: 0.0018 µM
SF-268; [3]
  IC50: 0.0071 µM
MCF-7; [8]
  IC50: 0.0044 µM

## Nc1ccn([C@@H]2CO[C@H](COC(=O)Cc3ccccc3)O2)c(=O)n1 [Compound 52, (2S,4S)-2- PHENYLACETOXYMETHYL-4- CYTOSIN-1′-YL-1,3- DIOXOLANE]
H-460; [4]
  IC50: 0.0068 µM
CEM/dCK-; read-out: IC50 CEM/dCK- 24 h
  IC50: 0.48 µM
CEM/dCK-
  Factor* (Resistance Factor = Ratio of dCK- on Wild-type CCRF-CEM): 400
CCRF-CEM; read-out: IC50 CCRF-CEM 24 h
  IC50: 0.0012 µM
SF-268; [5]
  IC50: 0.032 µM
MCF-7; [6]
  IC50: 0.088 µM

## O=C(Nc1ccn([C@@H]2CO[C@H](CO)O2)c(=O)n1)OCc1ccccc1 [Compound 50, [1-(2-HYDROXYMETHYL- [1,3]DIOXOLAN-4-YL)- CYTOSYL]-CARBAMIC ACID BENZYL ESTER]
H-460; [7]
  IC50: 1.2 µM
CEM/dCK-; [1]
  IC50: > 100 µM
CEM/dCK-
  Factor* (Resistance Factor = Ratio of dCK- on Wild-type CCRF-CEM): 588
CCRF-CEM; [2]
  IC50: 0.17 µM
SF-268; [3]
  IC50: 1.3 µM
MCF-7; [8]
  IC50: 0.82 µM

From patent publication US20030013660A1, “Dioxolane analogs for improved inter-cellular delivery” (Shire BioChem Inc., priority 2000, published 2003)
